Data from the NIST ThermoML archive (doi:10.1016/j.fluid.2007.04.030).

Experiment: xn = mol fraction of the nth substance listed
Details: 101 kPa, Liquid

COc1cc2c(cc1O)CC1c3c(cc(O)c(OC)c3-2)CCN1C (configuration not stated) [boldine] + CCO
mass density [kg/m3]
Details | x1 = 0.00151 | x1 = 0.0036 | x1 = 0.00737 | x1 = 0.01217 | x1 = 0.0177 | x1 = 0.02066 | x1 = 0.02425 | x1 = 0.02539
283.15 K | 801.79 | 806.58 | 815.68 | 826.69 | 838.83 | 845.25 | 852.81 | 855.28
288.15 K | 797.54 | 802.33 | 811.43 | 822.44 | 834.59 | 841.01 | 848.57 | 851.04
293.15 K | 793.27 | 798.06 | 807.16 | 818.18 | 830.32 | 836.74 | 844.3 | 846.79
298.15 K | 788.97 | 793.77 | 802.87 | 813.89 | 826.03 | 832.46 | 840.02 | 842.51
303.15 K | 784.65 | 789.45 | 798.55 | 809.57 | 821.71 | 828.14 | 835.71 | 838.2
308.15 K | 780.3 | 785.1 | 794.2 | 805.23 | 817.37 | 823.79 | 831.35 | 833.86
313.15 K | 775.91 | 780.71 | 789.81 | 800.84 | 813 | 819.42 | 826.97 | 829.49
318.15 K | 771.49 | 776.27 | 785.38 | 796.41 | 808.57 | 815 | 822.56 | 825.07
323.15 K | 767.01 | 771.79 | 780.9 | 791.93 | 804.1 | 810.54 | 818.09 | 820.6
328.15 K | 762.47 | 767.24 | 776.37 | 787.4 | 799.57 | 806.01 | 813.57 | 816.08
333.15 K | 757.86 | 762.64 | 771.76 | 782.8 | 794.98 | 801.42 | 808.99 | 811.5

COc1cc2c(cc1O)CC1c3c(cc(O)c(OC)c3-2)CCN1C (configuration not stated) [boldine] + CO
mass density [kg/m3]
Details | x1 = 0.00099 | x1 = 0.002 | x1 = 0.00302 | x1 = 0.00406 | x1 = 0.00513 | x1 = 0.00788 | x1 = 0.01077 | x1 = 0.01696 | x1 = 0.02389
283.15 K | 804.63 | 808.15 | 811.7 | 815.24 | 818.83 | 827.92 | 837.15 | 856.15 | 875.72
288.15 K | 799.96 | 803.48 | 807.04 | 810.59 | 814.19 | 823.28 | 832.53 | 851.55 | 871.15
293.15 K | 795.27 | 798.79 | 802.35 | 805.91 | 809.51 | 818.62 | 827.88 | 846.93 | 866.56
298.15 K | 790.57 | 794.1 | 797.66 | 801.22 | 804.83 | 813.95 | 823.21 | 842.29 | 861.96
303.15 K | 785.86 | 789.39 | 792.96 | 796.52 | 800.14 | 809.27 | 818.54 | 837.63 | 857.34
308.15 K | 781.12 | 784.66 | 788.23 | 791.8 | 795.42 | 804.56 | 813.85 | 832.96 | 852.69
313.15 K | 776.35 | 779.89 | 783.47 | 787.05 | 790.67 | 799.82 | 809.13 | 828.27 | 848.03
318.15 K | 771.55 | 775.1 | 778.68 | 782.26 | 785.89 | 795.05 | 804.37 | 823.55 | 843.34
323.15 K | 766.71 | 770.26 | 773.84 | 777.43 | 781.07 | 790.25 | 799.58 | 818.78 | 838.61
328.15 K | 761.83 | 765.38 | 768.97 | 772.57 | 776.2 | 785.4 | 794.75 | 813.97 | 833.84
333.15 K | 756.89 | 760.45 | 764.05 | 767.65 | 771.29 | 780.5 | 789.86 | 809.11 | 829.02
